Results reported in US11958869B2, “Ruthenium arene Schiff-base complexes and uses thereof” (CITY UNIVERSITY OF HONG KONG, priority 2021, dated 2024).
Like-named read-outs stand apart in the source and are kept apart here.

Experiments:
[1] = system: MDA-MB-231 secondary mammospheres; assay: Secondary mammosphere formation (self-renewal), MDA-MB-231; assay type: cell-based; conditions: for Number of MDA-MB-231 secondary mammospheres / Size (μm) of MDA-MB-231 secondary mammospheres: from drug-treated primary mammospheres, grown in drug-free conditions for 7 days; for propensity to form secondary mammospheres: single cells from drug-treated primary mammospheres, 7 days drug-free, FIG. 2
Protocol: To this purpose, drug-treated primary MDA-MB-231 mammospheres were dissociated into single cell suspensions and incubated for 7 days in ultralow attachment drug-free conditions.

[2] = system: MDA-MB-231 mammospheres; assay: Viability of MDA-MB-231 mammospheres, Alamar Blue assay (Table 1); assay type: cell-based
[3] = system: MDA-MB-231 mammospheres; assay: Mammosphere formation assay, MDA-MB-231 primary; assay type: cell-based; conditions: for Number of MDA-MB-231 mammospheres / Size (μm) of MDA-MB-231 mammospheres: primary mammospheres grown 96 hr, incubated with compound 72 hrs, >50 μm analyzed; for decrease in number of MDA-MB-231 mammospheres / decrease in size of MDA-MB-231 mammospheres: versus control
Protocol: (§1) Since the breast cancer stem cells formed a mass of colonies in the form of floating spheres without attaching to a surface of a plate, the size and number of the masses were observed by a mammosphere formation assay to determine a cancer-stem-cell-specific effect.
(§2) Single-cell suspension was cultured at a density of 1,000 to 15,000 cells/well using a MammoCult™ Human Medium kit (Stemcell Technologies Inc Vancouver, CA), and the spherical cells were counted and observed under a microscope.
(§3) The mammosphere assay is based on the concept that when cells proliferate in three-dimensional spheroid structures, only cancer cells with stem-like characteristics are able to evade anoikis.

[4] = system: ALDHbright subpopulation of MDA-MB-231 cells; assay: ALDEFLUOR assay (ALDH activity); assay type: cell-based; conditions: versus control, FIG. 3
Protocol: The cells were stained with […] bodipy-aminoacetaldehyde (BAAA), and then cultured at 37° C. for 45 minutes. An ALDH1 inhibitor, diethyl aminobenzaldehyde (DEAB), was used as the negative control. The stained cells were assayed using BD FACS Aria III. In this case, the positive fluorescent ALDH1-expressed cells (ALDH+) were detected in a green fluorescent channel (520 to 540 nm).
While CD44+/CD24−/low phenotype has often been associated with breast CSC/progenitor cell features, yet there is no correlation between the presence of CD44+/CD24−/low cells and clinical outcome and formation of distant metastases. It is the presence of aldehyde dehydrogenase (ALDH) bright cells which separates highly tumorigenic CD44+/CD24−/low/ALDHbright population from non-tumorigenic cells. Unlike CD44+/CD24−/low, ALDH is a predictor of metastasis and is associated with a poor clinical outcome. The main role of ALDH enzymes is the detoxification of aldehydes generated in various metabolic processes into carboxylic acids. However, several ALDH isoforms are involved in retinoic acid signaling and this particular function was linked to the “stemness” of CSCs. The functional activity of ALDHs can be accurately determined by ascertaining the cellular conversion of […] (BAAA) into a fluorescent molecule BODIPY-aminoacetate (BAA). ATP-binding cassette (ABC)-transporter inhibitors in the assay buffer prevent the efflux of BAA from the cells, resulting in the accumulation of BAA in cytoplasm.

[5] = system: MDA-MB-231 mammospheres; assay: Cytotoxicity in MDA-MB-231 mammospheres (Table 2); assay type: cell-based; conditions: read-out: IC50 (μM) MDA-MB-231 mammospheres 72 h
[6] = system: MDA-MB-231; assay: Anti-proliferative activity (MTT assay), MDA-MB-231; assay type: cell-based
Protocol: (§4) Cells were seeded in 96-well plates and maintained for 14-16 hours, then were treated with dimethylsulfoxide (DMSO) or test compound at various concentrations (i.e., 0.312, 1.25, 5, 20 μM) for 72 hrs. The cells were then washed with phosphate buffer saline (PBS) twice, added a medium containing 3-(4,5-dimethylthiazol-2-yl)-2,5-diphenyltetrazolium bromide (MTT) at a final concentration of 0.5 mg/mL, and incubated for 4 hr at 37° C. in a humidified incubator containing 5% CO2 in air. Cells having functional succinate dehydrogenase of mitochondria would convert MTT to formazan. Then, the medium was replaced with 100 μL of DMSO for 30 min at room temperature, and the 96-well plate was read by an ELISA reader at 550 nm to get the absorbance density values. The IC50 values of death cell lines were calculated accordingly.
(§5) The Ru^TEN complexes of Example 1 were evaluated for their anti-proliferative properties in two breast cancer cell lines, namely, MCF-7 and MDA-MB-231 cells via MTT assay. […] MCF-7 is a chemotherapy-responsive breast cancer cell line of luminal subtype with high expression of estrogen receptor (ER), whereas MDA-MB-231 is a triple negative breast cancer (TNBC) or basal-like breast cancer cell ine. TNBC is defined as highly invasive cancer that lacks expression of ER, progesterone receptor (PR) and Her-2; it has one of the worst outcomes among all subtypes of breast cancers. The aggressive nature of TNBC may be related to the presence of breast cancer stem cells within the tumor; therefore, MDA-MB-231 cells are often used as a model of mammary cancer stem cells.
(§6) The cytotoxicity of Ru^TEN complexes of Example 1 was compared to that of cisplatin or oxaliplatin, which were known to induce their anticancer effects by the mode of action different from ER stress. Three CSC-selective organic compounds, salinomycin, etoposide and abamectin, were also used for comparison. Briefly, MCF-7 and MDA-MB-231 cells were respectively treated with increasing concentrations of compounds of interest for 24 or 72 hrs and then the cell viability was measured.

[7] = system: MCF-7; assay: cells; assay type: cell-based; conditions: for IC50: read-out: IC50 (μM) MCF-7 72 h
Protocol: as §4, §5, §6

[8] = system: MCF-7 mammospheres; assay: Mammosphere formation assay, MCF-7; assay type: cell-based; conditions: for Number of MCF-7 mammospheres / Size (μm) of MCF-7 mammospheres: primary mammospheres grown 96 hr, incubated with compound 72 hrs, >50 μm analyzed
Protocol: as §1, §2, §3

[9] = system: human hepatocellular carcinoma LM3 xenografts; assay: Hepatocellular carcinoma LM3 xenograft model; assay type: in vivo, athymic NCr nude mice; conditions: all doses tested, FIG. 8
Protocol: (§7) Hepatocellular carcinoma LM3 cells (5×10^4 cells/20 μL) or breast cancer MDM-BA-231 cells (5×10^4 cells/20 μL) were implanted subcutaneously in the flanks of athymic NCr nude mice. A total of 40 male NCr nude mice (8 weeks or older weighing 20-24 g or more) were used for the tumor xenografts. The tested compounds (e.g., Ru^TEN 1, Ru^TEN 3, or salinomycin) were intraperitoneally administered at the dose of […] twice per week. Tumor volume was determined by image analysis. The mice in the control group received corresponding injection of 0.1% DMSO. For tumor-bearing NCr nude mice during the 4-weeks (or 28 days) experiment, the % body weight changes refer to: (the total weight on reading day/the total weight on day treatment started)×100. All mice were sacrificed at the end of the experiment (i.e., by the end of 28 days), and tissues including lung, liver, tumor, heart, brain, kidneys, spleen and colon were harvested, and checked for any sign of cancer metastasis.

[10] = system: MDA-MB-231 mammospheres; assay: Invasion / dispersion of spheroids into 3D collagen; assay type: cell-based; conditions: cells incubated with compound 72 hr, FIG. 4
Description: CSCs are associated with highly invasive phenotype and it is believed that this subset of cancer cells gives rise to metastases. In order to monitor the dissemination of MCF-7 and MDA-MB-231 breast cancer spheroids, the spheroids were embedded into three-dimensional (3D) collagen scaffold using Aim Biotech 3D cell culture chips. Collagen with spheroids was introduced into the central region of the microfluidic system where it polymerized via thermal cross-linking. Cell culture media was introduced into media channels forcing spheroids to move through collagen towards the media.
Thus, whether Ru^TEN complexes and salinomycin affected the invasive properties of MDA-MB-231 spheroids was then investigated. To this purpose, MDA-MB-231 monolayer cells were incubated with compounds of interest (e.g., Ru^TEN complexes of Examplel or salinomycin) for 72 hr, then the delamination was allowed to proceed for over 28 hr. Results are depicted in FIG. 4.

[11] = system: human MD-MBA-231 breast cancer xenografts; assay: Breast cancer MDA-MB-231 xenograft model; assay type: in vivo, athymic NCr nude mice; conditions: doses tested, FIG. 11
Protocol: as §7
Results are depicted in FIGS. 9 to 11.

[12] = 24 h, MTT, read-out: IC50 (μM) MDA-MB-231 24 h
[13] = 72 h, MTT, read-out: IC50 (μM) MDA-MB-231 72 h

## N.N.[Cl][Pt][Cl] [Cisplatin, cisplatin]
[1]
  Number of MDA-MB-231 secondary mammospheres: 67 ± 20
  Size (μm) of MDA-MB-231 secondary mammospheres: 103 ± 30 μm
[2]
  viability of MDA-MB-231 mammospheres: did not affect the viability
[3]
  inhibition of mammosphere growth, MDA-MB-231: did not show any potency in inhibiting mammosphere growth
  Number of MDA-MB-231 mammospheres: 136 ± 44
  Size (μm) of MDA-MB-231 mammospheres: 95 ± 25 μm
[4]
  reduction of ALDHbright sub-population: did not affect ALDHbright cells
[5]; 72 h
  IC50: > 40 µM
[6]; [12]
  IC50: 268 ± 78 µM
[6]; [13]
  IC50: 27 ± 8 µM
[6]; MTT
  antiproliferative activity, MDA-MB-231: only moderately active
[7]; 72 h, MTT
  IC50: 22 ± 7 µM
[7]; MTT
  antiproliferative activity, MCF-7: only moderately active
[8]
  inhibition of mammosphere growth, MCF-7: did not show any potency in inhibiting mammosphere growth
  Number of MCF-7 mammospheres: 273 ± 108
  Size (μm) of MCF-7 mammospheres: 106 ± 14 μm

## CC(C)c1cc(C(C)C)cc(C(C)C)c1.COc1ccc([N+]2=Cc3ccc4ccccc4[n+]3[Ru-]2[Cl])cc1.[Cl-] [Ru^TEN1, [(η6-1,3,5-triisopropybenzene)RuCl(4-methoxy-N-(2-quinolinyl-methylene)-aniline)]Cl]
[9]
  body weight of LM3 tumor-bearing mice: neither Ru^TEN1 nor Ru^TEN3 had caused lost in body weight
[1]
  Number of MDA-MB-231 secondary mammospheres: 102 ± 28
  Size (μm) of MDA-MB-231 secondary mammospheres: 69 ± 3 μm
  propensity to form secondary mammospheres: drastically reduced propensity to form secondary mammospheres
[2]; read-out: IC50 (μM), growth of MDA-MB-231 mammospheres
  IC50: 2.2 µM
[3]
  Number of MDA-MB-231 mammospheres: 103 ± 41
  Size (μm) of MDA-MB-231 mammospheres: 93 ± 29 μm
  decrease in number of MDA-MB-231 mammospheres: 20%
  decrease in size of MDA-MB-231 mammospheres: 18%
[10]
  dispersion of cells into collagen after 4 hr: did not exhibit significant dispersion
  dispersion of cells into collagen after 28 hr / entire incubation period: only slight dispersion
[5]; 72 h
  IC50: 1.4 ± 0.1 µM
[6]; [12]
  IC50: 1.2 ± 0.1 µM
[6]; [13]
  IC50: 0.28 ± 0.1 µM
[7]; 72 h, MTT
  IC50: 0.68 ± 0.23 µM
[8]
  Number of MCF-7 mammospheres: 238 ± 86
  Size (μm) of MCF-7 mammospheres: 130 ± 15 μm

## CC[C@@H](C(=O)[C@@H](C)[C@@H](O)[C@H](C)[C@@H]1O[C@@H]([C@@H](CC)C(=O)O)CC[C@@H]1C)[C@H]1O[C@]2(C=C[C@@H](O)[C@]3(CC[C@@](C)([C@H]4CC[C@](O)(CC)[C@H](C)O4)O3)O2)[C@H](C)C[C@@H]1C [Saliomycin, salinomycin]
[1]
  Number of MDA-MB-231 secondary mammospheres: 224 ± 74
  Size (μm) of MDA-MB-231 secondary mammospheres: 82 ± 8 μm
  propensity to form secondary mammospheres: only slight changes in size and number of mammospheres
[3]
  Number of MDA-MB-231 mammospheres: 87 ± 28
  Size (μm) of MDA-MB-231 mammospheres: 84 ± 25 μm
  decrease in number of MDA-MB-231 mammospheres: 30%
  decrease in size of MDA-MB-231 mammospheres: 30%
[10]
  dispersion of cells into collagen after 4 hr: did not exhibit significant dispersion
  dispersion of cells into collagen after 28 hr / entire incubation period: only slight dispersion
[4]
  reduction of ALDHbright sub-population: 89%
[5]; Homo sapiens, MDA-MB-231, 72 h
  IC50: 8.3 ± 2.4 µM
[6]; Homo sapiens, MDA-MB-231, 24 h, read-out: IC50 (μM) MDA-MB-231 24 h
  IC50: 31 ± 4 µM
[6]; Homo sapiens, MDA-MB-231, 72 h, read-out: IC50 (μM) MDA-MB-231 72 h
  IC50: 0.56 ± 0.09 µM
[11]
  body weight / toxicity in MDA-MB-231 tumor-bearing mice: low toxicity
[7]; Homo sapiens, MCF7, 72 h
  IC50: 0.51 ± 0.03 µM
[8]
  Number of MCF-7 mammospheres: 176 ± 73
  Size (μm) of MCF-7 mammospheres: 117 ± 21 μm
[8]; versus control
  decrease in number of MCF-7 mammospheres: 33%
  decrease in size of MCF-7 mammospheres: 9%
